Where a name gives a salt, the structure may show the parent alone. Read-outs that look alike come from different tables or passages of the source.
Legend:
IL-23 (p19/p40) = test: IL23-p19 ELISA, Dendritic, LPS (compound screening using DC cells); type: cell-based, Human; details: PBMC-derived DC cells, IFNγ primed, LPS 1 μg/ml, 18 hours, 10 pt, read-out: IL23-p19 ELISA, Dendritic, LPS, 10 pt, EC50
Method in brief: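 IL-23 in supernatants quantified by sandwich ELISA (anti-p19 capture, biotinylated anti-p40 detection, chemiluminescent readout) after 18 h LPS (1 μg/ml) stimulation. Cells were monocyte-derived DCs (GM-CSF/IL-4, 7 d), IFNγ-primed 24 h and given compound 1 h before LPS; viability by CellTiter Glo.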

IL-23p19 = test: LPS induced IL23p19 in THP-1 cells (with IFNγ primed) assay; type: cell-based, Human; details: THP-1 cells, IFNγ primed, LPS 1 ug/mL, 18 hours, 10 pt, read-out: IL23-p19 ELISA, THP1-IFNy, LPS, 10 pt EC50
Method in brief: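 Readout is secreted IL-23p19, quantified by chemiluminescent sandwich ELISA after 18 h LPS (1 ug/mL) stimulation of THP-1 cells that had been IFNγ-primed (50 ng/mL, ~18 h) and given compound 1 h beforehand at 37 °C. EC50 derived by curve fit; cytotoxicity tracked with Cell Titer Glo.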

EC50 (IL-23 (p19/p40); Homo sapiens, 18 h) [µM]	EC50 (IL-23p19; Homo sapiens, THP-1, 18 h) [µM]	SMILES	further results
0.0489	0.0373	O=C(Nc1cn([C@H]2C[C@@H](O)C2)nc1-c1ncccc1F)c1csc(-c2cn[nH]c2)n1 [II-65, N-(3-(3-fluoropyridin-2-yl)-1-((1s,3s)-3-hydroxycyclobutyl)-1H-pyrazol-4-yl)-2-(1H-pyrazol-4-yl)thiazole-4-carboxamide]	
0.244	0.106	O=C(Nc1cn(CCOCC(F)(F)F)nc1-c1ccccn1)c1csc(-c2cc[nH]n2)n1 [II-66, 2-(1H-pyrazol-3-yl)-N-(3-(pyridin-2-yl)-1-(2-(2,2,2-trifluoroethoxy)ethyl)-1H-pyrazol-4-yl)thiazole-4-carboxamide]	
1.02	1.86	CCO[C@H]1C[C@@H](n2cc(NC(=O)c3csc(-c4cn[nH]c4)n3)c(C(N)=O)n2)C1 [II-70, N-(3-carbamoyl-1-((1s,3s)-3-ethoxycyclobutyl)-1H-pyrazol-4-yl)-2-(1H-pyrazol-4-yl)thiazole-4-carboxamide]	
0.405	0.401	CCO[C@H]1C[C@@H](n2cc(NC(=O)c3csc(-c4cn[nH]c4)n3)c(-c3nnco3)n2)C1 [II-74, N-(1-((1s,3s)-3-ethoxycyclobutyl)-3-(1,3,4-oxadiazol-2-yl)-1H-pyrazol-4-yl)-2-(1H-pyrazol-4-yl)thiazole-4-carboxamide]	
0.537	2.49	O=C(Nc1cn(C2CCOCC2)nc1-c1nnco1)c1csc(-c2cn[nH]c2)n1 [II-75, N-(3-(1,3,4-oxadiazol-2-yl)-1-(tetrahydro-2H-pyran-4-yl)-1H-pyrazol-4-yl)-2-(1H-pyrazol-4-yl)thiazole-4-carboxamide]	
0.0475	0.0524	CC(C)O[C@H]1C[C@@H](n2cc(NC(=O)c3csc(-c4cn[nH]c4)n3)c(-c3ccccn3)n2)C1 [II-76, N-(1-((1,3-cis)-3-isopropoxycyclobutyl)-3-(pyridin-2-yl)-1H-pyrazol-4-yl)-2-(1H-pyrazol-4-yl)thiazole-4-carboxamide]	
0.0152	0.0758	C[C@]1(O)C[C@H](n2cc(NC(=O)c3csc(-c4cn[nH]c4)n3)c(-c3ccccn3)n2)C1 [II-79, N-(1-((1r,3r)-3-hydroxy-3-methylcyclobutyl)-3-(pyridin-2-yl)-1H-pyrazol-4-yl)-2-(1H-pyrazol-4-yl)thiazole-4-carboxamide]	

Further lines, the molecule ahead of its results:

SMILES	EC50 (IL-23 (p19/p40); Homo sapiens, 18 h) [µM]	EC50 (IL-23p19; Homo sapiens, THP-1, 18 h) [µM]	further results
O=C(Nc1cn(CC2(CO)COC2)nc1-c1ccccn1)c1csc(-c2cn[nH]c2)n1 [II-47, N-(1-((3-(hydroxymethyl)oxetan-3-yl)methyl)-3-(pyridin-2-yl)-1H-pyrazol-4-yl)-2-(1H-pyrazol-4-yl)thiazole-4-carboxamide]	3.21	1.17	
CCN(CC)CCn1cc(NC(=O)c2csc(-c3cn[nH]c3)n2)c(-c2ccccn2)n1 [II-49, N-(1-(2-(diethylamino)ethyl)-3-(pyridin-2-yl)-1H-pyrazol-4-yl)-2-(1H-pyrazol-4-yl)thiazole-4-carboxamide]			EC50 (IL-23 (p19/p40)): 0.0812 µM; EC50 (IL-23p19): 0.238 µM
COc1ccc(Cn2cc(-c3nc(C(=O)Nc4cn(C5CC(OC)C5)nc4-c4ccccn4)cs3)cn2)cc1 (stereo not shown) [II-51, 2-(1-(4-methoxybenzyl)-1H-pyrazol-4-yl)-N-(1-(3-methoxycyclobutyl)-3-(pyridin-2-yl)-1H-pyrazol-4-yl)thiazole-4-carboxamide]	26.6	3.61	
CC(C)(C)OC(=O)N1CC(n2cc(NC(=O)c3csc(-c4cn[nH]c4)n3)c(-c3ccccn3)n2)C1 [II-54]	0.189	0.171	
O=C(Nc1cn(C2CNC2)nc1-c1ccccn1)c1csc(-c2cn[nH]c2)n1 [II-55, N-{1-(Azetidin-3-yl)-3-(pyridine-2-yl)-1H-pyrazol-4-yl}-2-(1H-pyrazol-4-yl)thiazole-4-carboxamide]	0.0435	0.0749	
COC1CC(n2cc(NC(=O)c3csc(-c4cn[nH]c4)n3)c(-c3ccccn3)n2)C1 (stereo not shown) [II-57, N-{1-(3-Methoxycyclobutyl)-3-(pyridine-2-yl)-1H-pyrazol-4-yl}-2-(1H-pyrazol-4-yl)thiazole-4-carboxamide]	0.0854	0.0418	
COc1ccc(-c2nn(C)cc2NC(=O)c2csc(-c3cn[nH]c3)n2)nc1 [II-58, N-(3-(5-methoxypyridin-2-yl)-1-methyl-1H-pyrazol-4-yl)-2-(1H-pyrazol-4-yl)thiazole-4-carboxamide]	0.112	0.13	
CC(C)n1cc(NC(=O)c2csc(-c3cn[nH]c3)n2)c(-c2ccccn2)n1 [II-59, N-(1-isopropyl-3-(pyridin-2-yl)-1H-pyrazol-4-yl)-2-(1H-pyrazol-4-yl)thiazole-4-carboxamide]	0.216	0.422	
O=C(Nc1cn(CCN2CCOCC2)nc1-c1ccccn1)c1csc(-c2cn[nH]c2)n1 [II-60, N-(1-(2-morpholinoethyl)-3-(pyridin-2-yl)-1H-pyrazol-4-yl)-2-(1H-pyrazol-4-yl)thiazole-4-carboxamide]	0.0533	0.0473	
CN1CCN(CCn2cc(NC(=O)c3csc(-c4cn[nH]c4)n3)c(-c3ccccn3)n2)CC1 [II-61, N-(1-(2-(4-methylpiperazin-1-yl)ethyl)-3-(pyridin-2-yl)-1H-pyrazol-4-yl)-2-(1H-pyrazol-4-yl)thiazole-4-carboxamide]	0.0504	0.0225	
Cn1cc(NC(=O)c2csc(-c3cn[nH]c3)n2)c(C(F)(F)F)n1 [II-63, N-(1-methyl-3-(trifluoromethyl)-1H-pyrazol-4-yl)-2-(1H-pyrazol-4-yl)thiazole-4-carboxamide trifluoroacetate salt]	5.45	20.8	
CCO[C@H]1C[C@@H](n2cc(NC(=O)c3csc(-c4cnn(COCC[Si](C)(C)C)c4F)n3)c(-c3ccccn3)n2)C1 [II-71, N-(1-((1s,3s)-3-ethoxycyclobutyl)-3-(pyridin-2-yl)-1H-pyrazol-4-yl)-2-(5-fluoro-1-((2-(trimethylsilyl)ethoxy)methyl)-1H-pyrazol-4-yl)thiazole-4-carboxamide]	10.4	49.6	
CCO[C@H]1C[C@@H](n2cc(NC(=O)c3csc(-c4cn[nH]c4F)n3)c(-c3ccccn3)n2)C1 [II-72, N-(1-((1s,3s)-3-ethoxycyclobutyl)-3-(pyridin-2-yl)-1H-pyrazol-4-yl)-2-(5-fluoro-1H-pyrazol-4-yl)thiazole-4-carboxamide]			EC50 (IL-23 (p19/p40)): 0.14 µM; EC50 (IL-23p19): 1.14 µM
CCO[C@H]1C[C@@H](n2cc(NC(=O)c3csc(-c4cn[nH]c4F)n3)c(-c3ccccn3)n2)C1 [II-73, N-(1-((1s,3s)-3-ethoxycyclobutyl)-3-(pyridin-2-yl)-1H-pyrazol-4-yl)-2-(5-fluoro-1H-pyrazol-4-yl)thiazole-4-carboxamide]			EC50 (IL-23 (p19/p40)): 0.343 µM; EC50 (IL-23p19): 0.369 µM
CCO[C@H]1C[C@@H](n2cc(NC(=O)c3csc(-c4cnn(COP(=O)(O)O)c4)n3)c(-c3ccccn3)n2)C1 [II-77, (4-(4-((1-((1,3-cis)-3-ethoxycyclobutyl)-3-(pyridin-2-yl)-1H-pyrazol-4-yl)carbamoyl)thiazol-2-yl)-1H-pyrazol-1-yl)methyl phosphate bis-potassium salt]			EC50 (IL-23 (p19/p40); phosphate bis-potassium salt): 0.146 µM; EC50 (IL-23p19; phosphate bis-potassium salt): 0.147 µM
CCO[C@H]1C[C@@H](n2cc(NC(=O)c3csc(-c4cnn(COP(=O)(O)O)c4)n3)c(-c3ccccn3)n2)C1 [II-78, (4-(4-((1-((1,3-cis)-3-ethoxycyclobutyl)-3-(pyridin-2-yl)-1H-pyrazol-4-yl)carbamoyl)thiazol-2-yl)-1H-pyrazol-1-yl)methyl phosphate calcium salt]			EC50 (IL-23 (p19/p40); phosphate calcium salt): 0.0799 µM; EC50 (IL-23p19; phosphate calcium salt): 0.165 µM
